Assay results reported in patent US5461067A, “Retroviral protease inhibiting compounds” (priority 1994, dated 1995).
pIC50: −log10 of the molar value.

Legend:
HIV-13B in MT4 cells = test: Anti-HIV activity (inhibition of cytopathic effect of HIV) in MT4 cells; assay type: cell-based; settings: Human immunodeficiency virus 1, concentration giving 50% inhibition of cytopathic effect of HIV
Description: (§1) The IC50 is the concentration of compound that gives 50% inhibition of the cytopathic effect of HIV. The LC50 is the concentration of compound at which 50% of the cells remain viable.

[1] = Cytotoxicity in MT4 cells; assay type: cell-based; settings: human, concentration at which 50% of the cells remain viable, read-out: LC50 (the source's name)
Description: as §1

HIV-1 protease = HIV-1 protease (Human immunodeficiency virus type 1 group M subtype B, UniProt P04585); test: Fluorogenic assay for screening inhibitors of HIV protease
Description: The inhibitory potency of the compounds of the invention can be determined by the following method.
A compound of the invention is dissolved in DMSO and a small aliquot further diluted with DMSO to 100 times the final concentration desired for testing. The reaction is carried out in a 6×50 mm tube in a total volume of 300 microliters. The final concentrations of the components in the reaction buffer are: 125 mM sodium acetate, 1M sodium chloride, 5 mM dithiothreitol, 0.5 mg/ml bovine serum albumin, 1.3 μM fluorogenic substrate, 2% (v/v) dimethylsulfoxide, pH 4.5. After addition of inhibitor, the reaction mixture is placed in the fluorometer cell holder and incubated at 30° C. for several minutes. The reaction is initiated by the addition of a small aliquot of cold HIV protease. The fluorescence intensity (excitation 340 nm, emmision 490 nM) is recorded as a function of time. The reaction rate is determined for the first six to eight minutes. The observed rate is directly proportional to the moles of substrate cleaved per unit time. The percent inhibition is 100×(1-(rate in presence of inhibitor)/(rate in absence of inhibitor)).

[2] = pH 4.5, read-out: Percent Inhibition

| SMILES | pIC50 (HIV-13B in MT4 cells) | CC50 [1] [µM] | inhibition at 0.0005 µM (HIV-1 protease; [2]) [%] | pIC50 (HIV-1 protease) | inhibition at 0.0051 µM (HIV-1 protease; [2]) [%] |
| --- | --- | --- | --- | --- | --- |
| CC(C)c1nc(CN(C)C(=O)N[C@H](C(=O)NN(Cc2ccccc2)C[C@H](O)[C@H](Cc2ccccc2)NC(=O)OCc2ccno2)C(C)C)co1 [Example 13D, 5S-N-((5-Isoxazolyl)methoxy)carbonylamino-2-N-((N-methyl-N-((2-isopropyl-4-oxazolyl)methyl)amino)carbonyl)-L-valinylamino-4S, hydroxy-1,6-diphenyl-2-azahexane] | 6.82 to 6.99 | 58 | 71 |  |  |
| CC(C)c1nc(CN(C)C(=O)N[C@H](C(=O)NN(Cc2ccccc2)C[C@H](O)[C@H](Cc2ccccc2)NC(=O)OCc2cncs2)C(C)C)co1 [Example 12, 5S-((5-Thiazolyl)methoxy)Carbonylamino-2-N-((N-methyl-N-((2-isopropyl-4-oxazolyl)methyl)amino)carbonyl)-L-valinylamino-4S-hydroxy-1,6-diphenyl-2-azahexane] | 6.98 to 7.00 | 53 | 78 |  |  |
| CC(C)(C)OC(=O)NN(Cc1ccccc1)C[C@H](O)[C@H](Cc1ccccc1)NC(=O)OCc1ccccc1 [Example 1F, 2-(t-Butyloxycarbonyl)amino-4S-hydroxy-5S-(benzyloxycarbonyl)amino-1,6-diphenyl-2-azahexane] | 4.44 | > 100 |  | 8.29 | 50 |
